Measured values as given in ChEMBL document CHEMBL3039007, “Structure-based identification of OATP1B1/3 inhibitors” (Mol Pharmacol, 2013).

Legend:
[1] = target: T1, Solute carrier organic anion transporter family member 1B3 (Homo sapiens, UniProt Q9NPD5); details: chinese hamster, cho, 10 µM
T1 sequence (Q9NPD5 whole entry): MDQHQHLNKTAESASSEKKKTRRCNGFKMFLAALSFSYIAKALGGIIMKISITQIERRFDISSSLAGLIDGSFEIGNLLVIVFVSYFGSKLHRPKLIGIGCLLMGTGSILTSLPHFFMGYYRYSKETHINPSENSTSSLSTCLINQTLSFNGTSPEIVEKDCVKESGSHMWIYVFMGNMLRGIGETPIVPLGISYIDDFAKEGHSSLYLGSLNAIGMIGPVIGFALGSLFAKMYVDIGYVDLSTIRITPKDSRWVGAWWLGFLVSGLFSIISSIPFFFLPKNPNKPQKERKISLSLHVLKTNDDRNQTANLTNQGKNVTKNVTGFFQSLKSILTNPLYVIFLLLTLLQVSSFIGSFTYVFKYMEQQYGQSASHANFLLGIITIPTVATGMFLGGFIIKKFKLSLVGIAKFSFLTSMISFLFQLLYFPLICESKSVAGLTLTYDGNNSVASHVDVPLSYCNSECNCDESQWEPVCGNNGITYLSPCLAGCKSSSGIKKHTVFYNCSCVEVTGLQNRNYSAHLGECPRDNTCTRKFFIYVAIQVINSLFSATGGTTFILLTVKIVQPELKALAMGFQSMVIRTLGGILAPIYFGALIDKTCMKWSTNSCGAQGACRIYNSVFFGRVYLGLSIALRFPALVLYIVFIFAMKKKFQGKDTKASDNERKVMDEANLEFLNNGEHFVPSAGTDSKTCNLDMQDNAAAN

[2] = target: T2, Solute carrier organic anion transporter family member 1B1 (Homo sapiens, UniProt Q9Y6L6); details: chinese hamster, cho, 10 µM
T2 sequence (Q9Y6L6 whole entry): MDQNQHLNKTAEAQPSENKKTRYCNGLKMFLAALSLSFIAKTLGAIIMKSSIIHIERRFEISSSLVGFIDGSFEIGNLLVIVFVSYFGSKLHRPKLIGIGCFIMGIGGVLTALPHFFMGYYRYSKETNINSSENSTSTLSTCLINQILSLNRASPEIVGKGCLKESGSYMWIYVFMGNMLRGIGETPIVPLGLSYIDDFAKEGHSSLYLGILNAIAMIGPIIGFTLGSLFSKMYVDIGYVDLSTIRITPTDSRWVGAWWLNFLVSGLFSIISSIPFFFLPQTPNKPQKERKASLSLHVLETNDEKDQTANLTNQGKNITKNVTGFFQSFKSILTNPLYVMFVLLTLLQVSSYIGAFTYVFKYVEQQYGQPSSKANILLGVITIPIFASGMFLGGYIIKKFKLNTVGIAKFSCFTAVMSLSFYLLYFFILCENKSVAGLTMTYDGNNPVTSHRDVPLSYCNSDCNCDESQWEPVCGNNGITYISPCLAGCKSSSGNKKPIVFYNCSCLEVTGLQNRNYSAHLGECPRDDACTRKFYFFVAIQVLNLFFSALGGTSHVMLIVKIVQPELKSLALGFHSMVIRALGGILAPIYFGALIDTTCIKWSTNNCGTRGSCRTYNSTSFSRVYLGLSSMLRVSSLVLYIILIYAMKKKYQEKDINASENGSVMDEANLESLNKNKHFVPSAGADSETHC

With `C=CCc1ccc(O)c(OC)c1` [EUGENOL] the residual activity [1] was 104.3% and the residual activity [2] was 106%.

For `C=C(C)c1cc2cc(C(C)=O)c(O)cc2o1` [EUPARIN], the residual activity [1] was 98.85% and the residual activity [2] was 94.93%.

In the case of `COc1ccc(-c2cc(=O)c3c(O)c(OC)c(OC)cc3o2)cc1O` [EUPATORIN], the residual activity [1] is reported as 72.8% and the residual activity [2] is reported as 87.53%.

Molecule `COc1cc(C)c(C(=O)O)c(O)c1` [EVERNINIC ACID] has a residual activity [1] of 90.88% and a residual activity [2] of 82.73%.

Work on `COc1c2ccoc2nc2c(OC)c(OCC(O)C(C)(C)O)ccc12` (stereo not drawn) [EVOXINE] yielded a residual activity [1] of 94.63% and a residual activity [2] of 94%.

Work on `CCCCCCOc1ccccc1C(N)=O` [EXALAMIDE] yielded a residual activity [1] of 129.1% and a residual activity [2] of 188.8%.

Molecule `O=C1[C@H](CC[C@H](O)c2ccc(F)cc2)[C@@H](c2ccc(O)cc2)N1c1ccc(F)cc1` [EZETIMIBE] has a residual activity [1] of 30.63% and a residual activity [2] of 51.36%.

Work on `CC(=O)OCC(CCn1cnc2cnc(N)nc21)COC(C)=O` [FAMCICLOVIR] yielded a residual activity [1] of 68.05% and a residual activity [2] of 68.22%.

`COc1ccc2cc1Oc1ccc(cc1)C[C@H]1c3cc(c(OC)cc3CCN1C)Oc1c(OC)c(OC)cc3c1[C@H](C2)N(C)CC3` [FANCHININ] gave a residual activity [1] of 220.2% and a residual activity [2] of 75.74%.

`CC(C)=CCC/C(C)=C/CC/C(C)=C/CO` [FARNESOL] showed a residual activity [1] of 89.91% and a residual activity [2] of 89.38%.

With `CC(C)(OC(=O)c1ccccc1)[C@@H]1Cc2cc3ccc(=O)oc3cc2O1` [FELAMIDIN] the residual activity [1] was 168.9% and the residual activity [2] was 115.2%.

`COC(=O)Nc1nc2ccc(Sc3ccccc3)cc2[nH]1` [FENBENDAZOLE] gave a residual activity [1] of 102.5% and a residual activity [2] of 105.4%.

For `O=C(O)CCC(=O)c1ccc(-c2ccccc2)cc1` [FENBUFEN], the residual activity [1] was 86.33% and the residual activity [2] was 172.9%.

Work on `CCC(C(N)=O)c1ccccc1` (stereo not drawn) [FENBUTYRAMIDE] yielded a residual activity [1] of 100.4% and a residual activity [2] of 101.6%.

With `CC(NCCC(c1ccccc1)c1ccccc1)c1ccccc1.Cl` (stereo not drawn) [FENDILINE HYDROCHLORIDE] the residual activity [1] was 114.6% and the residual activity [2] was 90.27%.

`CC(C)OC(=O)C(C)(C)Oc1ccc(C(=O)c2ccc(Cl)cc2)cc1` [FENOFIBRATE] showed a residual activity [1] of 90.21% and a residual activity [2] of 82.56%.

With `CC(C(=O)O)c1cccc(Oc2ccccc2)c1` (stereo not drawn) [FENOPROFEN] the residual activity [1] was 96.37% and the residual activity [2] was 160.2%.

For `Cl.O=C1NCC2(CCN(CCc3ccccc3)CC2)O1` [FENSPIRIDE HYDROCHLORIDE], the residual activity [1] was 93.02% and the residual activity [2] was 107.4%.

Molecule `COP(=S)(OC)Oc1ccc(SC)c(C)c1` [FENTHION] has a residual activity [1] of 100.4% and a residual activity [2] of 116.2%.

`COc1cc(/C=C/C(=O)O)ccc1O` [FERULATE] was tested, and the residual activity [1] was 82.81% and the residual activity [2] was 60.24%.

`CCCCC[C@@H](O)[C@H]1C(=O)O[C@H](C)[C@@H](O)/C=C/C=C/C=C/C=C/C=C(\C)[C@@H](O)C[C@H](O)C[C@H](O)C[C@H](O)C[C@H](O)C[C@H](O)C[C@@H]1O` [FILIPIN] gave a residual activity [1] of 93.93% and a residual activity [2] of 96.46%.

With `Cl.O=C(COc1ccc(Cl)cc1)N1CCN(Cc2ccc3c(c2)OCO3)CC1` [FIPEXIDE HYDROCHLORIDE] the residual activity [1] was 95% and the residual activity [2] was 103.1%.

Molecule `Oc1ccc2c(c1)O[C@H](c1ccc(O)c(O)c1)[C@@H](O)C2` [FISETINIDOL] has a residual activity [1] of 95.23% and a residual activity [2] of 74.52%.

Molecule `O=c1c(O)c(-c2ccc(O)c(O)c2)oc2cc(O)ccc12` [FISETIN] has a residual activity [1] of 108.5% and a residual activity [2] of 56.32%.

In the case of `COC(=O)C[C@H]1C(C)(C)[C@@H](OC(C)=O)[C@@H]2CC3=C4CC(=O)O[C@@H](c5ccoc5)[C@]4(C)CC[C@@H]3[C@@]1(C)C2=O` [FISSINOLIDE], the residual activity [1] is reported as 51.76% and the residual activity [2] is reported as 27.44%.

Work on `O=C1CC(c2ccccc2)Oc2ccccc21` (stereo not drawn) [FLAVANONE] yielded a residual activity [1] of 79.68% and a residual activity [2] of 76.99%.

`COc1cc(O)c(C(=O)/C=C/c2ccccc2)c(OC)c1` [FLAVOKAWAIN B] showed a residual activity [1] of 125.2% and a residual activity [2] of 141.4%.

`O=c1c(O)c(-c2ccccc2)oc2ccccc12` [FLAVONOL] gave a residual activity [1] of 102.6% and a residual activity [2] of 133.5%.

Work on `CCC(=O)c1c(O)cc(O)cc1O` [FLOPROPIONE] yielded a residual activity [1] of 107.4% and a residual activity [2] of 69.54%.

`O=c1[nH]c(=O)n([C@H]2C[C@H](O)[C@@H](CO)O2)cc1F` [FLOXURIDINE] was tested, and the residual activity [1] was 109.2% and the residual activity [2] was 116.3%.

For `OC(Cn1cncn1)(Cn1cncn1)c1ccc(F)cc1F` [FLUCONAZOLE], the residual activity [1] was 106.5% and the residual activity [2] was 86.64%.

`CC(=O)OCC(=O)[C@@]1(O)CC[C@H]2[C@@H]3CCC4=CC(=O)CC[C@]4(C)[C@@]3(F)[C@@H](O)C[C@@]21C` [FLUDROCORTISONE ACETATE] was tested, and the residual activity [1] was 71.2% and the residual activity [2] was 36.29%.

Work on `O=C(O)c1ccccc1Nc1cccc(C(F)(F)F)c1` [FLUFENAMIC ACID] yielded a residual activity [1] of 64.03% and a residual activity [2] of 211.3%.

`CC1CCc2cc(F)cc3c(=O)c(C(=O)O)cn1c23` (stereo not drawn) [FLUMEQUINE] gave a residual activity [1] of 107% and a residual activity [2] of 74.99%.

For `C[C@@H]1C[C@H]2[C@@H]3C[C@H](F)C4=CC(=O)C=C[C@]4(C)[C@@]3(F)[C@@H](O)C[C@]2(C)[C@@]1(O)C(=O)COC(=O)C(C)(C)C` [FLUMETHASONE PIVALATE], the residual activity [1] was 107.9% and the residual activity [2] was 98.41%.

Molecule `C[C@@H]1C[C@H]2[C@@H]3C[C@H](F)C4=CC(=O)C=C[C@]4(C)[C@@]3(F)[C@@H](O)C[C@]2(C)[C@@]1(O)C(=O)CO` [FLUMETHASONE] has a residual activity [1] of 135.8% and a residual activity [2] of 84.89%.

With `Cl.Cl.Fc1ccc(C(c2ccc(F)cc2)N2CCN(C/C=C/c3ccccc3)CC2)cc1` [FLUNARIZINE HYDROCHLORIDE] the residual activity [1] was 102.7% and the residual activity [2] was 117.4%.

Work on `CC1(C)O[C@@H]2C[C@H]3[C@@H]4C[C@H](F)C5=CC(=O)C=C[C@]5(C)[C@H]4[C@@H](O)C[C@]3(C)[C@]2(C(=O)CO)O1` [FLUNISOLIDE] yielded a residual activity [1] of 77.49% and a residual activity [2] of 55.07%.

Molecule `CC(=O)[C@@]1(O)CC[C@H]2[C@@H]3C[C@H](C)C4=CC(=O)C=C[C@]4(C)[C@@]3(F)[C@@H](O)C[C@@]21C` [FLUOROMETHOLONE] has a residual activity [1] of 105.7% and a residual activity [2] of 85.71%.

With `O=c1[nH]cc(F)c(=O)[nH]1` [FLUOROURACIL] the residual activity [1] was 91.17% and the residual activity [2] was 86.84%.

`CNCCC(Oc1ccc(C(F)(F)F)cc1)c1ccccc1` (stereo not drawn) [FLUOXETINE] was tested, and the residual activity [1] was 77.22% and the residual activity [2] was 55.32%.

With `CC1(C)O[C@@H]2C[C@H]3[C@@H]4C[C@H](F)C5=CC(=O)CC[C@]5(C)[C@H]4[C@@H](O)C[C@]3(C)[C@]2(C(=O)CO)O1` [FLURANDRENOLIDE] the residual activity [1] was 99.16% and the residual activity [2] was 129.2%.

With `CC(C(=O)O)c1ccc(-c2ccccc2)c(F)c1` (stereo not drawn) [FLURBIPROFEN] the residual activity [1] was 98.28% and the residual activity [2] was 227%.

`CC(C)C(=O)Nc1ccc([N+](=O)[O-])c(C(F)(F)F)c1` [FLUTAMIDE] showed a residual activity [1] of 133.6% and a residual activity [2] of 130.9%.

In the case of `Nc1nc2ncc(CNc3ccc(C(=O)N[C@@H](CCC(=O)O)C(=O)O)cc3)nc2c(=O)[nH]1` [FOLIC ACID], the residual activity [1] is reported as 109.7% and the residual activity [2] is reported as 98.4%.

Work on `C[C@]12CCC(=O)C(O)=C1CC[C@@H]1[C@@H]2CC[C@]2(C)C(=O)CC[C@@H]12` [FORMESTANE] yielded a residual activity [1] of 106.1% and a residual activity [2] of 81.74%.

With `COc1ccc(-c2coc3cc(O)ccc3c2=O)cc1` [FORMONONETIN] the residual activity [1] was 114.7% and the residual activity [2] was 169.8%.

For `O=C([O-])P(=O)([O-])[O-].[Na+].[Na+].[Na+]` [FOSCARNET SODIUM], the residual activity [1] was 110.8% and the residual activity [2] was 113%.

Work on `O=C(O)c1ccccc1OP(=O)(O)O` [FOSFOSAL] yielded a residual activity [1] of 92.75% and a residual activity [2] of 68.68%.
